Experimental data reported in the Kinase Knowledgebase extract (Sharma et al. 2016).

Target: ROCK2 (human) (UniProt O75116)
Assay: Inhibition of ROCK2 Kinase Activity

Sequence of ROCK2 (human) (O75116 whole entry, looked up): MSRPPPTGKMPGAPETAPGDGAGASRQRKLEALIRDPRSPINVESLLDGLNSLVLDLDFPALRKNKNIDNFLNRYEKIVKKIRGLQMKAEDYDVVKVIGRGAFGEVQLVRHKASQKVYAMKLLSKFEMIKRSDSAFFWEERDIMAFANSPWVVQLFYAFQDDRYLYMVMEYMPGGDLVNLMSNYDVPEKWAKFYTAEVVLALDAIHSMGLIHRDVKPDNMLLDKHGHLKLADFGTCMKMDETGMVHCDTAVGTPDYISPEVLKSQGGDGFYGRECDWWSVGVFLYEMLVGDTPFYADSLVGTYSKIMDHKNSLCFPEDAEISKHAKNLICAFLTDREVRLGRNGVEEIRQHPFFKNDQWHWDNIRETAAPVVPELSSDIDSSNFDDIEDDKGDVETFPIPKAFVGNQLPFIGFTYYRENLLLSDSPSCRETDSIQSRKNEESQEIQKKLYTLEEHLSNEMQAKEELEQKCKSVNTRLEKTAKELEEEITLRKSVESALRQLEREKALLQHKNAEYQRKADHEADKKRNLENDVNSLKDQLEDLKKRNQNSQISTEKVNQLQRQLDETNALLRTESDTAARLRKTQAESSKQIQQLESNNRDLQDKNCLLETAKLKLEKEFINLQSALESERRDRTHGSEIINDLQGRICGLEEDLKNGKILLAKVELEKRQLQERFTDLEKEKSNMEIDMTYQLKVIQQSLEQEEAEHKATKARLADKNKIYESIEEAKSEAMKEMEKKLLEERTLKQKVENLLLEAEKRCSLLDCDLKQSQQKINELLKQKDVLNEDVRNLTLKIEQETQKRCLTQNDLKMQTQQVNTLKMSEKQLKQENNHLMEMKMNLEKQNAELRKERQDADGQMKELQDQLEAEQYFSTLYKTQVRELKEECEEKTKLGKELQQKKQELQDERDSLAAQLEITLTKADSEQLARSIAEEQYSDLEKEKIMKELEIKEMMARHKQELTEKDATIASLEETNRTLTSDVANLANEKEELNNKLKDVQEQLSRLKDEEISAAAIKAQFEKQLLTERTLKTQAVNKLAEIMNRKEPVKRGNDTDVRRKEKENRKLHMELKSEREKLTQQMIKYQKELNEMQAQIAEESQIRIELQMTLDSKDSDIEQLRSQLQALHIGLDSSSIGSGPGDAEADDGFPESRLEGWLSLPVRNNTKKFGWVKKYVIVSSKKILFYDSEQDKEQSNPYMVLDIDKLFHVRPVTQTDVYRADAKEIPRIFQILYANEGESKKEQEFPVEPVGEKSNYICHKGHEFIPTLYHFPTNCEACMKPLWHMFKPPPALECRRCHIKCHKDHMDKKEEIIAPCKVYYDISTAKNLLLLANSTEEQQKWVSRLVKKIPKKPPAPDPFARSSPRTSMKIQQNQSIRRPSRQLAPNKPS

| Structure (SMILES) | IC50 [µM] |
| --- | --- |
| O=C(NCc1nc(-c2ccncc2)n[nH]1)c1cc([N+](=O)[O-])ccc1Cl | > 5 |
| O=C(NCc1nc(-c2ccncc2)n[nH]1)c1cnc(O)c(Cl)c1 | > 5 |
| CC(C)(C)C(=O)Oc1ccc(C(=O)NCc2nc(-c3ccncc3)n[nH]2)c(O)c1 | > 5 |
| O=C(NCc1nc(-c2c[nH]c3ncccc23)n[nH]1)C(O)CCl (configuration not stated) | > 5 |
| Cc1ccc(C(=O)NCc2nc(-c3c[nH]c4ncccc34)n[nH]2)cc1 | > 5 |
| O=C(NCc1nc(-c2ccncc2)n[nH]1)c1ccc(Cl)cc1Cl | > 5 |
| O=C(NCc1nc(-c2ccncc2)n[nH]1)c1cc(O)ccc1[N+](=O)[O-] | > 5 |
| Cn1cnc(C(=O)NCc2nc(-c3c[nH]c4ncccc34)n[nH]2)c1 | > 5 |
| O=C(NCc1nc(-c2ccncc2)n[nH]1)c1cc(Cl)c(O)c(Cl)c1 | > 5 |
| O=C(NCc1nc(-c2ccncc2)n[nH]1)c1ccccc1Cl | > 5 |
| O=C(NCc1nc(-c2ccncc2)n[nH]1)C1=CCCC1 | > 5 |
| O=C(NCc1nc(-c2c[nH]c3ncccc23)n[nH]1)c1ccc(F)c([N+](=O)[O-])c1 | > 5 |
| O=C(Cc1ccc(C(F)(F)F)cc1)NCc1nc(-c2c[nH]c3ncccc23)n[nH]1 | > 5 |
| Cc1cc(C)cc(C(=O)NCc2nc(-c3ccncc3)n[nH]2)c1 | > 5 |
| Cc1cccc(CCC(=O)NCc2nc(-c3ccncc3)n[nH]2)c1 | > 5 |
| O=C(CC1Cc2ccccc2C1)NCc1nc(-c2c[nH]c3ncccc23)n[nH]1 | > 5 |
| O=C(Cc1ccc(O)c(F)c1)NCc1nc(-c2c[nH]c3ncccc23)n[nH]1 | > 5 |
| O=C(NCc1nc(-c2c[nH]c3ncccc23)n[nH]1)C1CCc2ccccc21 (configuration not stated) | > 5 |
| O=C(Cc1ccc(O)c(F)c1)NCc1nc(-c2ccncc2)n[nH]1 | > 5 |
| COc1ccc(NC(=O)NCc2nc(-c3ccncc3)n[nH]2)c(OC)c1 | > 5 |
| c1ccc2c(NCc3nc(-c4ccncc4)n[nH]3)ncnc2c1 | > 5 |

| Structure (SMILES) | IC50 [µM] |
| --- | --- |
| Cc1cccc(C(=O)NCc2nc(-c3ccncc3)n[nH]2)c1C | > 5 |
| CC(C)(C)OC(=O)NC(Cc1ccccn1)C(=O)NCc1nc(-c2c[nH]c3ncccc23)n[nH]1 (configuration not stated) | > 5 |
| COc1ccc(C(=O)NCc2nc(-c3ccncc3)no2)cc1 | > 5 |
| Cc1cccc(C(=O)NCc2nc(-c3ccncc3)n[nH]2)c1[N+](=O)[O-] | > 5 |
| COc1ccc2cc(C(C)C(=O)NCc3nc(-c4c[nH]c5ncccc45)n[nH]3)ccc2c1 (configuration not stated) | > 5 |
| O=Cc1ccccc1OCC(=O)NCc1nc(-c2c[nH]c3ncccc23)n[nH]1 | > 5 |
| O=C(NCc1nc(-c2c[nH]c3ncccc23)n[nH]1)c1cccc2ccccc12 | > 5 |
| O=C(Cc1ccc(O)c(Cl)c1)NCc1nc(-c2ccncc2)n[nH]1 | > 5 |
| O=C(NCc1nc(-c2c[nH]c3ncccc23)n[nH]1)c1ccc(F)cc1 | > 5 |
| O=C(NCc1nc(-c2ccncc2)n[nH]1)c1cccc(F)c1F | > 5 |
| COc1ccc(Br)c(C(=O)NCc2nc(-c3ccncc3)n[nH]2)c1 | > 5 |
| O=C(NCc1nc(-c2ccncc2)n[nH]1)C1CCc2ccccc21 (configuration not stated) | > 5 |
| COc1cc(C(=O)NCc2nc(-c3c[nH]c4ncccc34)n[nH]2)c([N+](=O)[O-])cc1OC | > 5 |
| O=C(NCc1nc(-c2ccncc2)n[nH]1)c1cccc(Oc2ccccc2)c1 | > 5 |
| CC(C)Oc1ccc(C(=O)NCc2nc(-c3c[nH]c4ncccc34)n[nH]2)cc1 | > 5 |
| O=C(NCc1nc(-c2c[nH]c3ncccc23)n[nH]1)c1cc(Cl)ccn1 | > 5 |
| O=C(NCc1nc(-c2c[nH]c3ncccc23)n[nH]1)c1ccccc1Cl | > 5 |
| O=C(NCc1nc(-c2c[nH]c3ncccc23)n[nH]1)c1ccccc1O | > 5 |
| Cc1ccc(C(=O)CCC(=O)NCc2nc(-c3ccncc3)n[nH]2)cc1 | > 5 |
| CC(C)(C)C(=O)Oc1ccc(C(=O)NCc2nc(-c3ccncc3)n[nH]2)c(OC(=O)C(C)(C)C)c1 | > 5 |

The next lines start with the values.

| IC50 [µM] | Structure (SMILES) |
| --- | --- |
| > 5 | COc1cc(OC)cc(C(=O)NCc2nc(-c3ccncc3)n[nH]2)c1 |
| ≤ 5 | O=C(NCc1cc(-c2ccncc2)n[nH]1)c1ccc(O)cc1O |
| > 5 | CC(NC(=O)OC(C)(C)C)C(=O)NCc1nc(-c2ccncc2)n[nH]1 (configuration not stated) |
| > 5 | O=C(NCc1nc(-c2c[nH]c3ncccc23)n[nH]1)c1ccccn1 |
| > 5 | O=C(NCc1nc(-c2ccncc2)n[nH]1)c1c2ccccc2cc2ccccc12 |
| > 5 | CC(=O)NCC(=O)NCc1nc(-c2c[nH]c3ncccc23)n[nH]1 |
| ≤ 5 | COc1ccc(C(=O)NCc2nc(-c3ccncc3)n[nH]2)cc1 |
| > 5 | Cc1ccccc1CCC(=O)NCc1nc(-c2ccncc2)n[nH]1 |
| > 5 | Cc1ccccc1C(=O)NCc1nc(-c2c[nH]c3ncccc23)n[nH]1 |
| > 5 | O=C(NCc1nc(-c2c[nH]c3ncccc23)n[nH]1)c1c(O)ccc2ccccc12 |
| > 5 | O=C(NCc1nc(-c2ccncc2)n[nH]1)c1ncc[nH]1 |
| ≤ 5 | O=C(NCc1nc(-c2ccncc2)co1)c1ccc(O)cc1O |
| > 5 | O=C(NCc1nc(-c2c[nH]c3ncccc23)n[nH]1)c1cccc(Oc2ccccc2)c1 |
| > 5 | O=C(NCc1nc(-c2c[nH]c3ncccc23)n[nH]1)c1ccccc1C(F)(F)F |
| > 5 | COc1cc(C(=O)NCc2nc(-c3ccncc3)n[nH]2)cc(Cl)n1 |
| > 5 | O=CC(=O)NCc1nc(-c2c[nH]c3ncccc23)n[nH]1 |
| > 5 | O=C(NCc1nc(-c2c[nH]c3ncccc23)n[nH]1)c1cnc[nH]1 |
| ≤ 5 | CCc1cccc(C(=O)NCc2nc(-c3ccncc3)n[nH]2)c1O |

| IC50 [µM] | Structure (SMILES) |
| --- | --- |
| > 5 | O=C(NCc1nc(-c2c[nH]c3ncccc23)n[nH]1)C1=C(O)CC=CC([N+](=O)[O-])=C1 |
| > 5 | Cc1ccc(O)c(C(=O)NCc2nc(-c3c[nH]c4ncccc34)n[nH]2)c1 |
| > 5 | O=C(NCc1nc(-c2ccncc2)n[nH]1)c1ccccc1C(=O)c1ccc(O)cc1 |
| > 5 | Cc1cccc(C(=O)NCc2nc(-c3c[nH]c4ncccc34)n[nH]2)c1[N+](=O)[O-] |
| > 5 | O=C(NCc1nc(-c2ccncc2)n[nH]1)c1c(F)cccc1F |
| > 5 | O=C(NCc1nc(-c2ccncc2)n[nH]1)c1ccc([N+](=O)[O-])cc1Cl |
| > 5 | O=C(NCc1nc(-c2c[nH]c3ncccc23)n[nH]1)c1ccccc1Cc1ccccc1 |
| > 5 | O=C(NCc1nc(-c2ccncc2)n[nH]1)c1cc(F)c(Cl)cc1F |
| > 5 | CCCCOc1ccc(C(=O)NCc2nc(-c3c[nH]c4ncccc34)n[nH]2)cc1 |
| > 5 | O=C(NCc1nc(-c2c[nH]c3ncccc23)n[nH]1)c1ccc(Cl)c(Br)c1 |
| ≤ 5 | O=C(NCc1c[nH]c(-c2ccncc2)n1)c1ccc(O)cc1O |
| > 5 | CC(C)(C)OC(=O)N1CC(O)CC1C(=O)NCc1nc(-c2ccncc2)n[nH]1 (configuration not stated) |
| > 5 | O=C(NCc1nc(-c2ccncc2)n[nH]1)c1c(F)c(F)c(F)c(F)c1F |
| ≤ 5 | CC(C)C(=O)Oc1ccc(C(=O)NCc2nc(-c3ccncc3)n[nH]2)c(O)c1 |
| ≤ 5 | O=C(NCc1nc(-c2ccncc2)c[nH]1)c1ccc(O)cc1O |
| ≤ 5 | O=C(CCc1cccc(C(F)(F)F)c1)NCc1nc(-c2ccncc2)n[nH]1 |
| ≤ 5 | O=C(NCc1nnc(-c2ccnc3[nH]ccc23)o1)c1ccc(O)cc1O |
| ≤ 5 | Cc1csc(C(=O)NCc2nc(-c3ccncc3)n[nH]2)c1 |
